Measurements: patent publication US6908935B2, “Calcium receptor modulating agents” (Amgen Inc., priority 2002, dated 2005)

Biological target: T1, human parathyroid cell Ca^2+ receptor (hPCaR) (Homo sapiens, UniProt P41180)
T1 construct: expressed in transfected cells
T1 sequence (P41180 20-1078): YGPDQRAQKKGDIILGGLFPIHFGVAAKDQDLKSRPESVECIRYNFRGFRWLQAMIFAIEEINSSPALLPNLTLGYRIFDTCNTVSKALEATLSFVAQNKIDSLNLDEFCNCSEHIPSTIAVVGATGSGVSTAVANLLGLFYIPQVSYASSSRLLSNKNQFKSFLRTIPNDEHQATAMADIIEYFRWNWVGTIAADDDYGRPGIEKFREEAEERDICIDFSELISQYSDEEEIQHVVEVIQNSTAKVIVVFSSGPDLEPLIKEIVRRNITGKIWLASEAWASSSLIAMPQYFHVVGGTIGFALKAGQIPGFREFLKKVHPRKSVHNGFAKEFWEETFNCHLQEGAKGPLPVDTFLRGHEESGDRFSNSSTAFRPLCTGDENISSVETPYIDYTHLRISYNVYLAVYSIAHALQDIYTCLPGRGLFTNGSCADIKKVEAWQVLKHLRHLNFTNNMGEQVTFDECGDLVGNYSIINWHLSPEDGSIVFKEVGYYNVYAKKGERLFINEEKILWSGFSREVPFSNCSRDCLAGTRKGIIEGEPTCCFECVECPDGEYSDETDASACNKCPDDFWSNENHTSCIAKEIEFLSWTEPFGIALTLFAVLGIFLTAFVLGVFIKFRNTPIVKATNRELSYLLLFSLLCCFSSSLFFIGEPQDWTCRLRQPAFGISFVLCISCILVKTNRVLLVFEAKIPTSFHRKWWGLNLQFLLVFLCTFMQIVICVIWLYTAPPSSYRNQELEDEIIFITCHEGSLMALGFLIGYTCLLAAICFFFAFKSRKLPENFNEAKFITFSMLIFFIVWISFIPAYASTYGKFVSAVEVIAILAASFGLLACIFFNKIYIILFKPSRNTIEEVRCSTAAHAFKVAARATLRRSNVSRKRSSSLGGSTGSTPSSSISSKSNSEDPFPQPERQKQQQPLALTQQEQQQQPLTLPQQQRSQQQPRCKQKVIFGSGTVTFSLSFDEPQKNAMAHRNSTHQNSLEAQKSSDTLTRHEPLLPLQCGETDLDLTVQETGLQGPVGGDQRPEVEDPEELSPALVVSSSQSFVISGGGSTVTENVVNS
Test: [Ca2+]i measurement with fluo-3 in HEK 293 4.0-7 cells stably transfected with hPCaR
Assay type: cell-based
Conditions: fluo-3 fluorescence (485/530 nm), effect on [Ca^2+]i
Outline: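 Cytosolic [Ca2+] was read as fluo-3 fluorescence (ex 485/em 530 nm) after compound addition to washed cells. Cells were hPCaR-transfected HEK 293 clone 7, dye-loaded 30 min at 37 °C with 2 μM fluo-3 acetoxymethyl ester in HEPES-buffered saline pH 7.45 containing 1 mM CaCl2 and 0.5% BSA.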

Compound | EC50 [µM]
COc1ccc(CN[C@H](C)c2ccccc2)cc1-c1ccc2c(ccn2CC(F)(F)F)c1 [(1R)-N-((4-(methyloxy)-3-(1-(2,2,2-trifluoroethyl)-1H-indol-5-yl)phenyl)methyl)-1-phenylethanamine] | ≤ 10
COc1ccc(CN[C@H](C)c2cccc(F)c2)cc1-c1ccc(S(C)(=O)=O)cc1 [(1R)-1-(3-fluorophenyl)-N-((6-(methyloxy)-4′-(methylsulfonyl)-1,1′-biphenyl-3-yl)methyl)ethanamine] | ≤ 10
COc1cccc([C@@H](C)NCc2ccc(OC(F)F)c(-c3cccnc3)c2)c1 [(1R)-N-((4-((difluoromethyl)oxy)-3-(3-pyridinyl)phenyl)methyl)-1-(3-(methyloxy)phenyl)ethanamine] | ≤ 10
COc1ccc(CN[C@H](C)c2ccc3ccccc3c2)cc1-c1cnc(N)nc1 [5-(2-(methyloxy)-5-((((1R)-1-(2-naphthalenyl)ethyl)amino)methyl)phenyl)-2-pyrimidinamine] | ≤ 10
C[C@@H](NCc1cccc(-c2ccc(F)cc2)c1)c1ccccc1 [(1R)-N-((4′-fluoro-1,1′-biphenyl-3-yl)methyl)-1-phenylethanamine] | ≤ 10
CC(=O)Nc1ccc(-c2cccc(CN[C@H](C)c3cccc4ccccc34)c2)cn1 [N-(5-(3-((((1R)-1-(1-naphthalenyl)ethyl)amino)methyl)phenyl)-2-pyridinyl)acetamide] | ≤ 10
COc1cccc([C@@H](C)NCc2cccc(-c3ccc(F)cc3)c2)c1 [(1R)-N-((4′-fluoro-1,1′-biphenyl-3-yl)methyl)-1-(3-(methyloxy)phenyl)ethanamine] | ≤ 10
C[C@@H](NCc1cccc(-c2ccoc2)c1)c1cccc2ccccc12 [Example 225, (1R)-N-((3-(3-furanyl)phenyl)methyl)-1-(1-naphthalenyl)ethanamine] | ≤ 10
COc1ccccc1-c1cc(CN[C@H](C)c2ccccc2)ccc1OC [Example 253, (1R)-N-((2′,6-bis(methyloxy)-1,1′-biphenyl-3-yl)methyl)-1-phenylethanamine] | ≤ 10
C[C@@H](NCc1ccc(OCC(F)(F)F)c(-c2ccc(C(F)(F)F)cc2)c1)c1cccc2ccccc12 [(1R)-1-(1-naphthalenyl)-N-((6-((2,2,2-trifluoroethyl)oxy)-4′-(trifluoromethyl)-1,1′-biphenyl-3-yl)methyl)ethanamine] | ≤ 10
COc1ccc(CN[C@@H](C)c2ccccc2)cc1-c1ccc(C(F)(F)F)cc1 [(1S)-N-((6-(methyloxy)-4′-(trifluoromethyl)-1,1′-biphenyl-3-yl)methyl)-1-phenylethanamine] | ≤ 10
C[C@@H](NCc1ccc(Cl)c(-c2ccc(OC(F)(F)F)cc2)c1)c1ccccc1 [(1R)-N-((6-chloro-4′-((trifluoromethyl)oxy)-1,1′-biphenyl-3-yl)methyl)-1-phenylethanamine] | ≤ 10
C[C@@H](NCc1ccc(OC(F)F)c(-c2cccnc2)c1)c1ccccc1 [(1R)-N-((4-((difluoromethyl)oxy)-3-(3-pyridinyl)phenyl)methyl)-1-phenylethanamine] | ≤ 10
CC(=O)Nc1cccc(-c2cccc(CN[C@H](C)c3ccccc3)c2)c1 [N-(3′-((((1R)-1-phenylethyl)amino)methyl)-1,1′-biphenyl-3-yl)acetamide] | ≤ 10
COc1ccc(CN[C@H](C)c2ccccc2)cc1-c1ccc(C(F)(F)F)nc1 [(1R)-N-((4-(methyloxy)-3-(6-(trifluoromethyl)-3-pyridinyl)phenyl)methyl)-1-phenylethanamine] | ≤ 10

Continued, values first:

EC50 [µM] | Compound
≤ 10 | COc1ccc(CN[C@H](C)c2cccc3ccccc23)cc1-c1cnc(OCC(F)(F)F)nc1 [(1R)-N-((4-(methyloxy)-3-(2-((2,2,2-trifluoroethyl)oxy)-5-pyrimidinyl)phenyl)methyl)-1-(1-naphthalenyl)ethanamine]
≤ 10 | Cc1ccc(-c2cccc(CN[C@H](C)c3ccccc3)c2)cn1 [(1R)-N-((3-(6-methyl-3-pyridinyl)phenyl)methyl)-1-phenylethanamine]
≤ 10 | COc1cccc([C@@H](C)NCc2cccc(-c3ccoc3)c2)c1 [Example 222, (1R)-N-((3-(3-furanyl)phenyl)methyl)-1-(3-(methyloxy)phenyl)ethanamine]
≤ 10 | COc1ccc(CN[C@H](C)c2cccc3ccccc23)cc1C1CCNCC1 [(1R)-N-((4-(methyloxy)-3-(4-piperidinyl)phenyl)methyl)-1-(1-naphthalenyl)ethanamine]
≤ 10 | COc1cccc([C@@H](C)NCc2ccc(OC)c(-c3ccsc3)c2)c1 [(1R)-1-(3-(methyloxy)phenyl)-N-((4-(methyloxy)-3-(3-thienyl)phenyl)methyl)ethanamine]
≤ 10 | COc1ccc(CN[C@H](C)c2ccccc2)cc1-c1ccc2oc(C)nc2c1 [(1R)-N-((3-(2-methyl-1,3-benzoxazol-5-yl)-4-(methyloxy)phenyl)methyl)-1-phenylethanamine]
≤ 10 | CCOC(=O)N1CCC(c2cc(CN[C@H](C)c3cccc(OC)c3)ccc2OC)CC1 [ethyl 4-(2-(methyloxy)-5-((((1R)-1-(3-(methyloxy)phenyl)ethyl)amino)methyl)phenyl)-1-piperidinecarboxylate]
≤ 10 | COc1ccc(CN[C@H](C)c2ccccc2)cc1-c1ccc(C(F)(F)F)cc1 [(1R)-N-((6-(methyloxy)-4′-(trifluoromethyl)-1,1′-biphenyl-3-yl)methyl)-1-phenylethanamine]
≤ 10 | COc1ccc(CN[C@H](C)c2cccc3ccccc23)cc1-c1cccnc1 [(1R)-N-((4-(methyloxy)-3-(3-pyridinyl)phenyl)methyl)-1-(1-naphthalenyl)ethanamine]
≤ 10 | COc1cccc([C@@H](C)NCc2ccc(OC)c(-c3ccc4oc(C)nc4c3)c2)c1
≤ 10 | COc1ccc(CN[C@H](C)c2cccc3ccccc23)cc1C1CCN(C)CC1 [(1R)-N-((4-(methyloxy)-3-(1-methyl-4-piperidinyl)phenyl)methyl)-1-(1-naphthalenyl)ethanamine]
≤ 10 | CCN(CC)CCCOc1ccc(-c2cc(CN[C@H](C)c3cccc4ccccc34)ccc2OC)cn1 [N-((3-(6-((3-(diethylamino)propyl)oxy)-3-pyridinyl)-4-(methyloxy)phenyl)methyl)-N-((1R)-1-(1-naphthalenyl)ethyl)amine]
≤ 10 | COCCOc1ccc(-c2cc(CN[C@H](C)c3ccccc3)ccc2OC)cn1 [(1R)-N-((4-(methyloxy)-3-(6-((2-(methyloxy)ethyl)oxy)-3-pyridinyl)phenyl)methyl)-1-phenylethanamine]
≤ 10 | COc1ccc(CN[C@H](C)c2ccc(C)cc2)cc1-c1cncc(C(N)=O)c1 [5-(2-(methyloxy)-5-((((1R)-1-(4-methylphenyl)ethyl)amino)methyl)phenyl)-3-pyridinecarboxamide]
≤ 10 | COc1ccc(CN[C@H](C)c2cccc3ccccc23)cc1-c1ccc2c(ccn2CC(F)(F)F)c1 [(1R)-N-((4-(methyloxy)-3-(1-(2,2,2-trifluoroethyl)-1H-indol-5-yl)phenyl)methyl)-1-(1-naphthalenyl)ethanamine]
≤ 10 | C[C@@H](NCc1ccc(F)c(-c2ccc(F)cc2)c1)c1ccccc1 [Example 251, (1R)-N-((4′,6-difluoro-1,1′-biphenyl-3-yl)methyl)-1-phenylethanamine]
≤ 10 | COc1ccc(CN[C@H](C)c2ccc(C)cc2)cc1-c1cncnc1 [(1R)-N-((4-(methyloxy)-3-(5-pyrimidinyl)phenyl)methyl)-1-(4-methylphenyl)ethanamine]
≤ 10 | C[C@@H](NCc1ccc(C(F)(F)F)c(-c2ccc(C(F)(F)F)cc2)c1)c1ccccc1 [Example 314, (1R)-N-((4′,6-bis(trifluoromethyl)-1,1′-biphenyl-3-yl)methyl)-1-phenylethanamine]
